This note sets out measurements from US20250134926A1, “COMPOSITION FOR ANTI-CANCER TREATMENT COMPRISING IMMUNOGENIC TUMOR-DERIVED EXTRACELLULAR VESICLES USING AN ENDOPLASMIC RETICULUM STRESS INDUCER AND METHOD FOR PRODUCING THE SAME” (priority 2023, published 2025).

In the series the test system is melanoma cell line B16F10. As to the kind of experiment: MTT cytotoxicity evaluation of pretreatment substances. It is filed as cell-based, mouse. The following applies: for viability of tumor cells: B16F10, 24 hours. How it is done: To conduct the cytotoxicity evaluation of each pretreatment substance (tunicamycin and metformin) on the melanoma cell line B16F10, 3-(4,5-dimethylthiazol-2-yl)-2,5-diphenyltetrzolium bromide (MTT) assay was performed. First, 10^4 cells were seeded in each 96-well plate and cultured for 24 hours. Then, cells in each well were treated with each substance at a given concentration and cultured for an additional 24 hours. After the supernatant was discarded, the cells were treated with an MTT-containing medium at the concentration of 0.5 mg/ml and left for two hours, and the intracellular formazan crystals were dissolved in each well using dimethylsulfoxide. Then, the cytotoxicity was analyzed by measuring the absorbance at 570 nm by using a microplate reader.

Consider tunicamycin, for which the “viability of tumor cells” value is, setting by setting: (concentrations of 0.05 μM or less) “no significant decrease”; (concentrations of 0.1 μM or more) “decrease in cell viability”. Also, the “highest concentration at which no decrease in cell viability was observed” value (B16F10, MTT, 24 hours) was found to be 0.05 µM.
